Assay results: patent US20120177693A1, “DEEP LUNG PULMONARY DELIVERY OF TREPROSTINIL” (Aradigm Corporation, priority 2008, published 2012)
Where “and” joins values, the source holds several entries; their conditions need not be identical. Identical values can stand only once.

Test: Gamma scintigraphy of 99mTc-DTPA radiolabeled treprostinil sodium inhaled via AERx Essence System or Nebu-Tec Optineb nebulizer, two-way crossover, 14 healthy male subjects
Format: in vivo, human
Details: for Calculated Lung Dose: monosodium salt; for Dose (calculated dose to lung): Median
Text: This was an open label study conducted in a single-center, using a randomized, two-way crossover design. Sixteen healthy adult male subjects were to be enrolled to receive study treatments. Upon provision of written informed consent, each study candidate underwent a pre-study evaluation and screening to determine eligibility to participate.
On each of two dosing days, eligible subjects underwent dosing with ^99mTc-labeled treprostinil sodium using either the AERx Essence System or the Nebu-Tec Optineb nebulizer. Following their initial study dose, subjects underwent a washout period of approximately 48 hours before completing a second (crossover) study dose.
Immediately following each study dose, subjects underwent gamma scintigraphy and multiple samplings of venous blood to characterize treprostinil lung deposition and plasma pharmacokinetics.
Subjects also underwent a Krypton-81m (^81mKr) gas ventilation imaging procedure. This procedure could have been performed on any dosing day followed by a 30 minute washout before any of the aerosol dosing procedures, if there were logistical/scheduling problems, ventilation imaging could have been done after dosing. Alternatively the ^81mKr ventilation scan could have been performed on a separate visit. Additionally transmission images were also acquired this could have been performed on any dosing day prior to any of the aerosol dosing procedures or on a separate visit
A single “bulk” treprostinil sodium formulation (600 μg/mL) was used for both the Nebu-Tec Optineb nebulizer and the AERx Essence. The bulk drug solutions were diluted by the addition of ^99mTc-DTPA (2000 MBq/mL) at a ratio of 19:1, i.e. 0.05 mL of ^99mTc-DTPA was added to 0.950 mL of bulk drug solution. Each mL of the radiolabeled drug solutions therefore contained 100 MBq of ^99mTc-DTPA and 570 μg of treprostinil. The radiolabel ^99mTc as ^99mTc-DTPA was acquired from an approved supplier (i.e., the Medical Physics Department, University Hospital of Wales, Heath, Cardiff [Manufacturers License Number: MS/IMP18523]).
In this study, the radiolabel marker (^99mTc-DTPA) deposition profiles obtained following administration of a radiolabeled treprostinil sodium formulation will be evaluated using gamma to assess the performance for the two delivery systems. Gamma scintigraphy offers a precise and accurate method of evaluating the deposition of an inhaled radiolabeled aerosol in the oropharynx and lung.
To compare the emitted dose, delivered lung dose, and the central-to-peripheral (sC/P) lung deposition of radiolabeled treprostinil sodium delivered via the AERx Essence System versus the Nebu-Tec Optineb nebulizer using gamma scintigraphy.
In addition the following secondary efficacy variables were determined, the dose (μg) of treprostinil deposited in the lung, the percent dose (emitted and loaded) of radiolabeled treprostinil sodium in the oropharyngeal region from both devices, the percent loaded dose remaining in both devices and associated equipment e.g. mouthpiece.
Scintigraphic data were used to determine the fraction of the loaded dose delivered to the lung which was subsequently utilised to estimate the lung dose in terms of μg of Treprostinil. For AERx, the calculation of lung dose was derived by normalising the emitted dose to lung for the fraction (%) of the loaded dose retained post-administration i.e. within the device and dosage forms. The actual dose within the AERx strips (a single dose consisted of two strips) was calculated from the nominal treprostinil concentration adjusted for the actual concentration determined by HPLC assay of the stock radiolabeled drug solutions on each dosing day (see Table 14.2.1.5).
The Optineb device contained a drug reservoir (nebuliser cup) from which each dose (six separate puffs) was metered. To determine the dose available to the subject an in vitro test to collect a single emitted dose (ED) was performed for each device following subject dosing.

## CCCCC[C@H](O)CC[C@@H]1[C@H]2Cc3cccc(OCC(=O)[O-])c3C[C@H]2C[C@H]1O.[Na+] [treprostinil, (1R,2R,3aS,9aS)-[[2,3,3a,4,9,9a-Hexahydro-2-hydroxyl-1-[(3S)-3-hydroxyoctyl]-1H-benz[f]inden-5-yl]oxy]acetic acid monosodium salt]
AERx vs nebulizer
  Greater treprostinil lung dose for AERx than for the nebulizer: 20%
Via AERx, Max, listed as Treprostinil
  Calculated Lung Dose: 30.76 µg
Via AERx, Max
  Calculated Lung Dose: 30.756 µg
Via AERx, Mean, listed as Treprostinil
  Calculated Lung Dose: 26.07 µg
Via AERx, Mean
  Calculated Lung Dose: 26.07 µg and 26.072 µg
Via AERx
  Dose (calculated dose to lung): 27.383 µg
Via AERx, Min, listed as Treprostinil
  Calculated Lung Dose: 12.77 µg
Via AERx, Min
  Calculated Lung Dose: 12.770 µg
Via Optineb, Max, listed as Treprostinil
  Calculated Lung Dose: 30.69 µg
Via Optineb, Max
  Calculated Lung Dose: 30.691 µg
Via Optineb, Mean, listed as Treprostinil
  Calculated Lung Dose: 19.58 µg
Via Optineb, Mean
  Calculated Lung Dose: 19.58 µg and 19.579 µg
Via Optineb
  Dose (calculated dose to lung): 18.470 µg
Via Optineb, Min, listed as Treprostinil
  Calculated Lung Dose: 9.30 µg
Via Optineb, Min
  Calculated Lung Dose: 9.296 µg
